# Laboratory results published in publication PMC10743905, “Design, Synthesis, and In Vitro and In Vivo Bioactivity Studies of Hydrazide–Hydrazones of 2,4-Dihydroxybenzoic Acid” (International Journal of Molecular Sciences, 2023).
# Where two headings read alike, the source gives them in different places.
# Key:
# Format in all cases: cell-based
# [1] = test system: Candida glabrata ATCC 90030; assay: Broth microdilution MIC/MFC; settings: for MFC / MIC: Nakaseomyces glabratus; for MFC: ATCC90030, read-out: MFC; for MIC: ATCC90030, read-out: MIC
# How it was run: (§1)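 Minimal inhibitory concentrations are determined by broth microdilution following EUCAST and CLSI. DMSO-dissolved compounds are serially halved from 1000 to 0.488 µg/ml final; inocula are 0.5 McFarland.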
# [2] = test system: Candida albicans ATCC 10231; assay: Broth microdilution MIC/MFC; settings: for MFC: ATCC10231, read-out: MFC; for MIC: ATCC10231, read-out: MIC
# How it was run: as §1
# [3] = test system: Candida parapsilosis ATCC 22019; assay: Broth microdilution MIC/MFC; settings: for MFC / MIC: Lodderomyces parapsilosis; for MFC: ATCC22019, read-out: MFC; for MIC: ATCC22019, read-out: MIC
# How it was run: as §1
# [4] = test system: Candida albicans ATCC 2091; assay: Broth microdilution MIC/MFC; settings: for MIC: ATCC2091, read-out: MIC; for MFC: ATCC2091, read-out: MFC
# How it was run: as §1
# [5] = test system: Candida krusei ATCC 14243; assay: Broth microdilution MIC/MFC; settings: for MIC / MFC: Pichia kudriavzevii; for MIC: ATCC14243, read-out: MIC; for MFC: ATCC14243, read-out: MFC
# How it was run: as §1
# [6] = test system: Bacillus subtilis ATCC 6633; assay: Broth microdilution MIC/MBC; settings: for MBC: ATCC6633
# How it was run: as §1
# [7] = test system: Salmonella typhimurium ATCC 14028; assay: Broth microdilution MIC/MBC; settings: for MBC / MIC: Salmonella enterica
# How it was run: as §1
# [8] = test system: Staphylococcus epidermidis ATCC 12228; assay: Broth microdilution MIC/MBC; settings: for MBC: ATCC12228
# How it was run: as §1
# [9] = test system: Pseudomonas aeruginosa ATCC 9027; assay: Broth microdilution MIC/MBC; settings: for MBC / MIC: ATCC9027
# How it was run: as §1
# [10] = test system: Proteus mirabilis ATCC 12453; assay: Broth microdilution MIC/MBC; settings: for MBC / MIC: ATCC12453
# How it was run: as §1
# [11] = test system: Staphylococcus aureus ATCC 43300; assay: Broth microdilution MIC/MBC; settings: Staphylococcus aureus ATCC 43300 (MRSA)
# How it was run: as §1
# [12] = test system: Micrococcus luteus ATCC 10240; assay: Broth microdilution MIC/MBC; settings: for MBC: ATCC10240
# How it was run: as §1
# [13] = test system: Staphylococcus aureus ATCC 29213; assay: Broth microdilution MIC/MBC; settings: for MBC / MIC: ATCC29213
# How it was run: as §1
compound,measurement,setting,value
"CCCc1ccc(/C=N/NC(=O)c2ccc(O)cc2O)cc1 [Compound 13, 2,4-dihydroxy-N-[(4-propylphenyl)methylidene]benzohydrazide]",MFC/MIC,[1],> 1
same,MFC,[1],> 1000 µg/mL
same,MIC,[1],1000 µg/mL
same,MFC/MIC,[2],> 1
same,MFC,[2],> 1000 µg/mL
same,MIC,[2],1000 µg/mL
same,MFC/MIC,[3],> 1
same,MFC,[3],> 1000 µg/mL
same,MIC,[3],1000 µg/mL
same,MIC,[4],> 1000 µg/mL
same,MIC,[5],> 1000 µg/mL
same,MBC/MIC,[6],> 1
same,MBC,[6],> 1000 µg/mL
same,MIC,"[6]; ATCC6633, read-out: MIC",1000 µg/mL
same,MBC/MIC,[7],> 1
same,MBC,[7],> 1000 µg/mL
same,MIC,[7],1000 µg/mL
same,MBC/MIC,[8],> 1
same,MBC,[8],> 1000 µg/mL
same,MIC,"[8]; ATCC12228, read-out: MIC",1000 µg/mL
same,MBC/MIC,[9],> 1
same,MBC,[9],> 1000 µg/mL
same,MIC,[9],1000 µg/mL
same,MBC/MIC,[10],> 1
same,MBC,[10],> 1000 µg/mL
same,MIC,[10],1000 µg/mL
same,MBC,[11],> 1000 µg/mL
same,MBC/MIC,[11],> 1
same,MIC,[11],1000 µg/mL
same,MBC/MIC,[12],> 1
same,MBC,[12],> 1000 µg/mL
same,MIC,"[12]; ATCC10240, read-out: MIC",1000 µg/mL
same,MBC/MIC,[13],> 1
same,MBC,[13],> 1000 µg/mL
same,MIC,[13],1000 µg/mL
"O=C(N/N=C/c1cc(I)cc(I)c1O)c1ccc(O)cc1O [Compound 18, 2,4-dihydroxy-N-[(2-hydroxy-3,5-diiodophenyl)methylidene]benzohydrazide]",MFC/MIC,[1],> 1
same,MFC,[1],> 1000 µg/mL
same,MIC,[1],1000 µg/mL
same,MFC/MIC,[2],> 1
same,MFC,[2],> 1000 µg/mL
same,MIC,[2],1000 µg/mL
same,MFC/MIC,[3],> 2
same,MFC,[3],> 1000 µg/mL
same,MIC,[3],500 µg/mL
same,MFC/MIC,[4],> 2
same,MFC,[4],> 1000 µg/mL
same,MIC,[4],500 µg/mL
same,MFC/MIC,[5],> 1
same,MFC,[5],> 1000 µg/mL
same,MIC,[5],1000 µg/mL
same,MBC/MIC,[6],2
same,MIC,[6],1.95 µg/mL
same,MBC,[6],3.91 µg/mL
same,MIC,"[6]; ATCC6633, read-out: MIC",1.95 µg/mL
same,MBC/MIC,[7],> 1
same,MBC,[7],> 1000 µg/mL
same,MIC,[7],1000 µg/mL
same,MBC/MIC,[8],8
same,MIC,[8],0.98 µg/mL
same,MBC,[8],7.81 µg/mL
same,MIC,"[8]; ATCC12228, read-out: MIC",0.98 µg/mL
same,MBC/MIC,[9],> 1
same,MBC,[9],> 1000 µg/mL
same,MIC,[9],1000 µg/mL
same,MBC/MIC,[10],> 2
same,MBC,[10],> 1000 µg/mL
same,MIC,[10],500 µg/mL
same,MBC,[11],31.2 µg/mL
same,MBC/MIC,[11],8
same,MIC,[11],3.91 µg/mL
same,MBC/MIC,[12],4
same,MIC,[12],0.48 µg/mL
same,MBC,[12],1.95 µg/mL
same,MIC,"[12]; ATCC10240, read-out: MIC",0.48 µg/mL
same,MBC/MIC,[13],2
same,MBC,[13],15.6 µg/mL
same,MIC,[13],7.81 µg/mL
"O=C(N/N=C/c1ccccc1[N+](=O)[O-])c1ccc(O)cc1O [Compound 19, 2,4-dihydroxy-N-[(2-nitrophenyl)methylidene]benzohydrazide]",MFC/MIC,[1],> 2
same,MFC,[1],> 1000 µg/mL
same,MIC,[1],500 µg/mL
same,MFC/MIC,[2],> 4
same,MFC,[2],> 1000 µg/mL
same,MIC,[2],250 µg/mL
same,MFC/MIC,[3],> 4
same,MFC,[3],> 1000 µg/mL
same,MIC,[3],250 µg/mL
same,MFC/MIC,[4],> 2
same,MFC,[4],> 1000 µg/mL
same,MIC,[4],500 µg/mL
same,MFC/MIC,[5],> 2
same,MFC,[5],> 1000 µg/mL
same,MIC,[5],500 µg/mL
same,MBC/MIC,[6],> 4
same,MBC,[6],> 1000 µg/mL
same,MIC,"[6]; ATCC6633, read-out: MIC",250 µg/mL
same,MBC/MIC,[7],> 1
same,MBC,[7],> 1000 µg/mL
same,MIC,[7],1000 µg/mL
same,MBC/MIC,[8],> 2
same,MBC,[8],> 1000 µg/mL
same,MIC,"[8]; ATCC12228, read-out: MIC",500 µg/mL
same,MBC/MIC,[9],> 1
same,MBC,[9],> 1000 µg/mL
same,MIC,[9],1000 µg/mL
same,MBC/MIC,[10],> 1
same,MBC,[10],> 1000 µg/mL
same,MIC,[10],1000 µg/mL
same,MBC,[11],> 1000 µg/mL
same,MBC/MIC,[11],> 2
same,MIC,[11],500 µg/mL
same,MBC/MIC,[12],> 1
same,MBC,[12],> 1000 µg/mL
same,MIC,"[12]; ATCC10240, read-out: MIC",1000 µg/mL
same,MBC/MIC,[13],> 1
same,MBC,[13],> 1000 µg/mL
same,MIC,[13],1000 µg/mL
"O=C(N/N=C/c1cccc([N+](=O)[O-])c1)c1ccc(O)cc1O [Compound 20, 2,4-dihydroxy-N-[(3-nitrophenyl)methylidene]benzohydrazide]",MIC,[1],> 1000 µg/mL
same,MFC/MIC,[2],> 1
same,MFC,[2],> 1000 µg/mL
same,MIC,[2],1000 µg/mL
same,MFC/MIC,[3],> 1
same,MFC,[3],> 1000 µg/mL
same,MIC,[3],1000 µg/mL
same,MIC,[4],> 1000 µg/mL
same,MIC,[5],> 1000 µg/mL
same,MBC/MIC,[6],> 4
same,MBC,[6],> 1000 µg/mL
same,MIC,"[6]; ATCC6633, read-out: MIC",250 µg/mL
same,MIC,[7],> 1000 µg/mL
same,MIC,"[8]; ATCC12228, read-out: MIC",> 1000 µg/mL
same,MIC,[9],> 1000 µg/mL
same,MIC,[10],> 1000 µg/mL
same,MIC,[11],> 1000 µg/mL
same,MIC,"[12]; ATCC10240, read-out: MIC",> 1000 µg/mL
same,MIC,[13],> 1000 µg/mL
